Results taken from patent US20230203098A1, “HUMAN TRANSFERRIN RECEPTOR BINDING PEPTIDE” (priority 2020, published 2023).
Blank lines part the entries; values can stand above or below the molecule they belong to. *1 amine or outer side, *2 acyl side, *3 side chain or, on linkers, in order; H or OH if unused. Where a SMILES comes first, the peptide text is derived from it. Bridges are numbered along the chain shown (N, C = ends). Where no end group is shown, it is not given here. [ ]: non-standard residue; d: D form. The star is where a group is joined. ξ: configuration not given here. X6 = CC(C)[C@H](CC(=O)[C@H](Cc1ccccc1)N(C)[*:1])C(=O)[*:2]; X2 = O=C(O)c1cc(C(=O)*)ccc1-c1c2ccc(=O)cc-2oc2cc(O)ccc12; Tyr(Me) = COc1ccc(C[C@H](N[*:1])C(=O)[*:2])cc1; NMePhe(3-Cl) = CN[C@@H](Cc1cccc(Cl)c1)C(=O)O; NMeW = CN[C@@H](Cc1c[nH]c2ccccc12)C(=O)O; NMeY = CN[C@@H](Cc1ccc(O)cc1)C(=O)O; PEG4 = NCCOCCOCCOCCOCCC(=O)O; Aib = CC(C)(N)C(=O)O; ξC = NC(CS)C(=O)O

What was measured:
[1] = tested on: Human breast cancer cells BT-549; assay: Migration of 5-FAM peptide conjugates into human breast cancer cells BT-549 (fluorescence microscopy); assay type: cell-based; details: BT-549 cells, sample diluted to 100 nmol/L, 37° C., 3 hours
Experimental: Culturing was performed under conditions of 37° C. and 5% CO2.
Collagen Type I (Corning) was diluted to 50 µg/mL with 20 mmol/L acetic acid. A sterilized cover glass was placed in each well of the 24-well plate. After the diluted Collagen Type I solution was added to the plate, the plate was incubated at 37° C. for 1 hour. The Collagen Type I solution was removed from the plate and the plate was washed 3 times with PBS. The human breast cancer cells BT-549 were inoculated in an amount of 1 × 10^5 cells per 1 well and cultured overnight under conditions of 37° C. and 5% CO2.
The sample was diluted with the dilution medium to 100 nmol/L.
The sample solution was removed from the 24-well plate, and the BT-549 cells were washed three times with PBS. 4% paraformaldehyde phosphate buffer (FUJIFILM Wako Pure Chemical Corporation) was added at 500 µL/well, and the cells were allowed to stand at room temperature for 15 minutes and then washed three times with PBS. Further, Hoechst 33342 (Thermo Fisher Scientific) diluted with PBS to 2 µg/mL was added at 500 µL/well, and the cells were allowed to stand at room temperature under shading for 10 minutes and then washed three times with PBS. The cover glass was removed from the 24-well plate, and the cells were enclosed on a slide glass using fluorescent mounting medium (Agilent Technologies) and allowed to stand at room temperature under shading overnight. For the observation, an inverted fluorescence microscope DMI6000B (Leica Microsystems) was used, and the observation was performed at the wavelength for detecting FITC and DAPI. The scale bar in the figures indicates 50 µm.

[2] = molecular target: transferrin receptor (hTfR) (Homo sapiens, UniProt P02786); assay: Intermolecular interaction evaluation test between transferrin receptor (hTfR) and peptide by surface plasmon resonance (SPR); assay type: binding; details: SPR, result in words
Procedure, shortened: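 hTfR captured on Ni-NTA chip then amine-coupled; peptides run single-cycle kinetics at 5–100 nM in 10 mM HEPES pH 8.0, 150 mM NaCl, 0.05% Tween 20, 0.1% BSA, 1.0% DMSO. KD from least-squares curve fitting of sensorgrams.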

TfR-KI mice = details: mouse, in vivo
Experimental: hTfRNo.894-vivotag750 conjugate administration liquid (No. 894 administration liquid) : 4.8 µL of dimethyl sulfoxide (DMSO, Sigma Aldrich) was added to 6 µL of a 5 mM solution of the hTfRNo.894-vivotag750 conjugate synthesized in Example 2, 66 µL of the 20% hydroxypropyl-β-cyclodextrin solution was further added, and the mixture was mixed well. To this, 48 µL of polyethylene glycol 400 was further added and mixed to prepare a No. 894-administration liquid. […] The offspring (chimeric mice) thus obtained were determined by hair color, and individuals in which the ES cells contributed to the development of the organism at a higher rate, that is, individuals having a higher proportion of white hairs relative to their total body hairs, were selected. […] White-colored F1 mice were selected, DNA was extracted from their tail tissues and analyzed, and the mice in which the mouse transferrin receptor gene on the chromosome had been heterologously replaced with the chimeric hTfR were selected as the TfR-KI mice. […] After this, tissues for measuring fluorescence intensity (brain, heart, lung, liver, spleen, kidney, quadriceps femoris muscle, thymus, thoracic vertebrae, and femur) were collected and stored in normal saline to prevent drying. […]

hTfR-KI mice = assay: Mouse brain localization confirmation test with FITC conjugate (immunohistochemical staining, single and multiple dose); assay type: in vivo; details: multiple dose test, 3.7 mg/kg every 10 minutes, 6 times
Experimental: In the same manner as in Example 5, the conjugate of the hTfR-binding special cyclic peptide No. 894 and the fluorescent substance FITC was administered to the hTfR-KI mice. The dose was adjusted to 3.7 mg/kg.
One hour after administration, the mice were anesthetized with isoflurane and subjected to a blood removal treatment by running normal saline from the left ventricle for 4 to 5 minutes. After that, the brain was collected for measuring the fluorescence intensity and stored in normal saline to prevent drying. This brain tissue was subjected to immunohistochemical staining using an anti-FITC antibody (MBL Life Science). The immunohistochemical staining in the brain tissue using the anti-FITC antibody was performed with a publicly known method and the staining was observed using a fluorescence microscope. Note that in the figure, red arrows indicate the cerebral capillaries and arrowheads indicate the Purkinje cells.
The localization of the above-mentioned conjugate in the brain tissue was confirmed by the immunohistochemical staining. Note that, in the figure, red arrows indicate the cerebral capillaries, arrowheads indicate the Purkinje cells, and yellow arrows indicate dendrites.

Chain of transferrin receptor (hTfR) (P02786 whole entry): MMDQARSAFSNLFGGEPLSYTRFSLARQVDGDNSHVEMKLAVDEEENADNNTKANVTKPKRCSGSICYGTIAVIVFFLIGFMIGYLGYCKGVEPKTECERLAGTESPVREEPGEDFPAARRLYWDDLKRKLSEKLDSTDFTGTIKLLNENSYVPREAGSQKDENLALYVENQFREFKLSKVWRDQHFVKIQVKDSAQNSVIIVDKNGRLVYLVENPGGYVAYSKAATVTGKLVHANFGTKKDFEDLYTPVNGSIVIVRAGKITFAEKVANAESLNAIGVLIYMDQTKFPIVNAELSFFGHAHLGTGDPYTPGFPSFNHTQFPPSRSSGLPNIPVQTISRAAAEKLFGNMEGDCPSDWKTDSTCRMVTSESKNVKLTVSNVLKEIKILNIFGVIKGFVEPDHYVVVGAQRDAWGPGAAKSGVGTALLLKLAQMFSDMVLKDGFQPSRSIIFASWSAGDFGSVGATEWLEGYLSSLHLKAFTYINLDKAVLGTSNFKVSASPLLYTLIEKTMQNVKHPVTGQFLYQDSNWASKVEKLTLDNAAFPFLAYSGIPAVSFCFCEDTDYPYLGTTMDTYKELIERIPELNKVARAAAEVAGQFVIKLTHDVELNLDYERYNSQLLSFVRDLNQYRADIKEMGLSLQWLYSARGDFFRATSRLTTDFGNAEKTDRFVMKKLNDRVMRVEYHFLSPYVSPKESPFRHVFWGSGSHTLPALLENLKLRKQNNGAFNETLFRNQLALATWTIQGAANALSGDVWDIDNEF

hTfR binding ability [2]: no binding to hTfR was observed
Molecule: Patent ID 449: negative control, 5-FAM labelled conjugate of Flip894_variant61_PEG4, a peptide without binding ability to hTfR ({CH2CO}-A[NMeY]F[dR][Aib]IY[Tyr(Me)]YN[NMeW]V[NMePhe(3-Cl)]VC; thioether N-15; not fully specified (C-terminus); also: methylation at Y2 and W11, type not given here) [reference compound]
migration into the cells [1]: did not migrate into the cells

migration into the brain through the BBB (TfR-KI mice): migrated into the brain through the BBB
Molecule: CC[C@H](C)[C@@H]1NC(=O)[C@H](Cc2ccc(O)cc2)NC(=O)[C@H](Cc2ccc(O)cc2)NC(=O)[C@H](CC(N)=O)NC(=O)[C@H](Cc2c[nH]c3ccccc23)NC(=O)[C@H](C(C)C)NC(=O)[C@H](Cc2ccccc2)NC(=O)[C@H](C(C)C)NC(=O)[C@H](C)NC(=O)CSC[C@@H](C(N)=O)NC(=O)[C@H](Cc2ccc(O)cc2)N(C)C(=O)[C@H](Cc2ccc(O)cc2)NC(=O)[C@H](CCCNC(=N)N)NC(=O)[C@H](CCCNC(=N)N)NC(=O)[C@H]([C@@H](C)CC)NC1=O [hTfR No. 894]
migration to tissues (TfR-KI mice): also migrated to each tissue, mainly muscle tissues

Molecule: CC[C@H](C)[C@@H]1NC(=O)[C@H](Cc2ccc(O)cc2)NC(=O)[C@H](Cc2ccc(O)cc2)NC(=O)[C@H](CC(N)=O)NC(=O)[C@H](Cc2c[nH]c3ccccc23)NC(=O)[C@H](C(C)C)CC(=O)[C@H](Cc2ccccc2)N(C)C(=O)[C@H](C(C)C)NC(=O)[C@H](C)NC(=O)CSCC(C(=O)NCCOCCOCCOCCOCCC(=O)N[C@H](CCCCNC(=O)c2ccc(-c3c4ccc(=O)cc-4oc4cc(O)ccc34)c(C(=O)O)c2)C(N)=O)NC(=O)[C@H](Cc2ccc(O)cc2)N(C)C(=O)[C@H](Cc2ccc(O)cc2)NC(=O)[C@H](CCCNC(=N)N)NC(=O)[C@H](CCCNC(=N)N)NC(=O)[C@H]([C@@H](C)CC)NC1=O (stereo partly shown) [Patent ID 446] ({CH2CO}-AV[X6]WNYYIIRRY[NMeY][ξC][PEG4][dK](X2)-NH2; thioether N-14)
migration into the cells [1]: into the cells was confirmed

Molecule: CC[C@H](C)[C@@H]1NC(=O)[C@H](Cc2ccc(O)cc2)NC(=O)[C@H](Cc2ccc(O)cc2)NC(=O)[C@H](CC(N)=O)NC(=O)[C@H](Cc2c[nH]c3ccccc23)NC(=O)[C@H](C(C)C)NC(=O)[C@H](Cc2ccccc2)NC(=O)[C@H](C(C)C)NC(=O)[C@H](C)NC(=O)CSC[C@@H](C(=O)NCCOCCOCCOCCOCCOCCOCCOCCOCCOCCOCCOCCOCCC(=O)N[C@@H](CCCCNC(=O)c2ccc(-c3c4ccc(=O)cc-4oc4cc(O)ccc34)c(C(=O)O)c2)C(N)=O)NC(=O)[C@H](Cc2ccc(O)cc2)N(C)C(=O)[C@H](Cc2ccc(O)cc2)NC(=O)[C@H](CCCNC(=N)N)NC(=O)[C@H](CCCNC(=N)N)NC(=O)[C@H]([C@@H](C)CC)NC1=O
localization in the brain tissue (hTfR-KI mice): reached as far as neurons such as the Purkinje cells

Molecule: Patent ID 447: 5-FAM labelled conjugate of hTfR_894_variant61_PEG4 (AVXVWNYXIIXXFYC; not fully specified; PEG4 linker, 5-FAM label; (3)..(3) Xaa is MeF3C; MOD_RES (5)..(5) …ON; (8)..(8) Xaa is F4OMe; (11)..(11) Xaa is Aib; (12)..(12) Xaa is dr; MOD_RES (14)..(14) …ON)
migration into the cells [1]: into the cells was confirmed
